The record followed here is patent US7846943B2, “Azolopyridin-2-one derivatives as lipase and phospholipase inhibitors” (Sanofi-Aventis, priority 2005, dated 2010).

The assay concerns the target T1, endothelial lipase (EL) (Homo sapiens, UniProt Q9Y5X9).
T1 construct: made in house; host or cells: recombinant cell lines (CHO, HEK293); concentrated conditioned medium used as enzyme solution
T1 sequence (Q9Y5X9 21-500): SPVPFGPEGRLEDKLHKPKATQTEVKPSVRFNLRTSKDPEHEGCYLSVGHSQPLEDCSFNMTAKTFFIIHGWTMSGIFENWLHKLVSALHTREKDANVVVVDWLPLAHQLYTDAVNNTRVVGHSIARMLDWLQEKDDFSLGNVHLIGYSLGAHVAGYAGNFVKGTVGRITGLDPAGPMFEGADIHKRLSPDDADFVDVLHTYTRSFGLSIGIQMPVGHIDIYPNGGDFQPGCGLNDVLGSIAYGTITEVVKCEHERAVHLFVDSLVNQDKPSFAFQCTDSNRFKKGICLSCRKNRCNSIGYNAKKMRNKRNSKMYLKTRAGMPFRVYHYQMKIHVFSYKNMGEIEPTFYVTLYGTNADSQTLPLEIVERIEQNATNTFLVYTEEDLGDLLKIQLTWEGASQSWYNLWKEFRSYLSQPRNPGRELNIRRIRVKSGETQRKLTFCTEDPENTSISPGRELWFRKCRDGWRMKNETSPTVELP
The experiment in a line: Further EL inhibition assay. Type of assay: biochemical. The following applies: Bodipy-labelled phospholipid substrate, 37° C., 90 minutes, HPTLC fluorescence readout; EL from conditioned medium of recombinant cell lines (CHO, HEK293). The source says: EL is released as secretory protein in high concentration into cell culture medium (conditioned medium) by recombinant cell lines (CHO, HEK293). This is employed as enzyme solution after concentration.
The enzymatic activity is reduced as a function of the inhibitor concentration used, and the inhibitor concentration at which a half-maximum enzymatic activity is observed is called IC50.
The phospholipase-specific substrate 1,2-bis(4,4-difluoro-5,7-dimethyl-4-bora-3a,4a-diaza-s-indacene-3-undecanoyl)-sn-glycero-3-phosphocholine, (manufacturer Molecular Probes) is used to characterize the enzymatic activity of endothelial lipase and the effect of inhibitors. Hydrolysis of the A1 ester linkage of this phospholipid by the enzyme liberates the fluorescent dye Bodipy which can be detected after separation by thin-layer chromatography on an HPTLC plate (silica gel 60, Merck) or directly in the reaction vessel by measuring the fluorescence. The substrate solution is prepared by dissolving 100 μg of 1,2-bis(4,4-difluoro-5,7-dimethyl-4-bora-3a,4a-diaza-s-indacene-3-undecanoyl)-sn-glycero-3-phospho-choline (manufacturer Molecular Probes) in 100 μl of DMSO and taking up in 2.4 mg of tripalmitin (Sigma) in 393 μl of chloroform which comprises 20 mg/ml DOP-choline (1,2-dioleoyl-sn-glycero-3-phosphocholine). 39.3 μl of this lipid mixture are transferred into a fresh reaction vessel, and the solvent is evaporated off. The lipid mixture is dissolved in 4 ml of 200 mM TRIS-HCl, 150 mM sodium chloride, pH=7.4, by sonication twice. The subsequent enzymic reaction takes place at 37° C. for 90 minutes. For this purpose, 20 μl of the substrate solution are incubated with 2 μl of inhibitor of appropriate concentration (dissolved in 10% DMSO, using 10% strength DMSO solution for control) and 2 μl of enzyme solution (conditioned medium). The 4 μl of the assay mixture are loaded onto an HPTLC plate (silica gel 60, Merck), and the liberated fluorescent dye is separated for detection with an eluent (diethyl ether:petroleum benzine:acetic acid [78:22:1]). After evaporation of the eluent, the plate is read in a fluorescence scanner. An increased liberation of the fluorescent dye in the uninhibited reaction is to be observed as a measure of the enzymic activity.

As to `O=C(N[C@@H]1CCc2ccccc21)n1c(=O)oc2cccnc21` [Example 14], the IC50 was found to be 180 nM.
In the case of `O=C(NCC1CCCCC1)n1c(=O)oc2cccnc21` [Example 18, 2-Oxo-oxazolo[4,5-b]pyridine-3-cyclohexylmethylcarboxamide] it was 480 nM.
For `Cc1ccccc1CNC(=O)n1c(=O)oc2cc(Br)cnc21` [Example 2, 6-Bromo-2-oxo-oxazolo[4,5-b]pyridine-3-(2-methylbenzyl)carboxamide], the IC50 is 10 nM.
Consider `CCCCNC(=O)n1c(=O)oc2cccnc21` [Example 11, 2-Oxo-oxazolo[4,5-b]pyridine-3-butylcarboxamide], for which the IC50 turned out to be 354 nM.
`O=C(N[C@H]1CCc2ccccc21)n1c(=O)oc2cccnc21` [Example 15]: the IC50 came out at 230 nM.
With `Cc1ccc2oc(=O)n(C(=O)NCc3ccccc3C)c2n1` [Example 17, 5-Methyl-2-oxo-oxazolo[4,5-b]pyridine-3-(2-methylbenzyl)carboxamide], the IC50 stood at 61 nM.
In the case of `Cc1ccc(CNC(=O)n2c(=O)oc3cccnc32)cc1C` [Example 5, 2-Oxo-oxazolo[4,5-b]pyridine-3-(3,4-dimethylbenzyl)carboxamide] it was 10 nM.
As to `O=C(NC1CCCc2ccccc21)n1c(=O)oc2cccnc21` (stereo not drawn) [Example 13, 2-Oxo-oxazolo[4,5-b]pyridin-3-(1,2,3,4-tetrahydronaphthalen-1-yl)carboxamide], the IC50 is 0.5 nM.
As for `CCCCCCCNC(=O)n1c(=O)oc2cccnc21` [Example 9, 2-Oxo-oxazolo[4,5-b]pyridine-3-heptylcarboxamide], the IC50 was 11 nM.
For the compound `Cc1cccc(CNC(=O)n2c(=O)oc3cccnc32)c1` [Example 4, 2-Oxo-oxazolo[4,5-b]pyridine-3-(3-methylbenzyl)carboxamide], the half-maximal inhibitory concentration (IC50) worked out at 390 nM.
For the compound `CCCCCCCCCCCCNC(=O)n1c(=O)oc2cccnc21` [Example 16, 2-Oxo-oxazolo[4,5-b]pyridin-3-dodecylcarboxamide], the IC50 stood at 180 nM.
As to `CCCCCCCCNC(=O)n1c(=O)oc2cccnc21` [Example 19, 2-Oxo-oxazolo[4,5-b]pyridine-3-octylcarboxamide], the IC50 was found to be 83 nM.
For the compound `CCCCCCCCCNC(=O)n1c(=O)oc2cccnc21` [Example 20, 2-Oxo-oxazolo[4,5-b]pyridine-3-nonylcarboxamide], the IC50 worked out at 90 nM.
In the case of `CCCCCCNC(=O)n1c(=O)oc2cccnc21` [Example 3, 2-Oxo-oxazolo[4,5-b]pyridine-3-hexylcarboxamide] it was 69 nM.
With `Cc1ccccc1CNC(=O)n1c(=O)oc2cccnc21` [Example 1, 2-Oxo-oxazolo[4,5-b]pyridin-3-(2-methylbenzyl)carboxamide], the IC50 stood at 50 nM.

What is called IC50 is the point on the concentration scale where inhibition reaches its midpoint.
